Results on 19 compounds are retold here after patent publication US20260028326A1, “COMPOUND BASED ON ISOINDOLINE-SUBSTITUTED GLUTARIMIDE BACKBONE AND USE THEREOF” (GLUETACS THERAPEUTICS (SHANGHAI) CO., LTD., priority 2022, published 2026).

pIC50: −log10 of the molar value.

Sequence of human Cereblon WT GST-tagged protein (Q96SW2 whole entry): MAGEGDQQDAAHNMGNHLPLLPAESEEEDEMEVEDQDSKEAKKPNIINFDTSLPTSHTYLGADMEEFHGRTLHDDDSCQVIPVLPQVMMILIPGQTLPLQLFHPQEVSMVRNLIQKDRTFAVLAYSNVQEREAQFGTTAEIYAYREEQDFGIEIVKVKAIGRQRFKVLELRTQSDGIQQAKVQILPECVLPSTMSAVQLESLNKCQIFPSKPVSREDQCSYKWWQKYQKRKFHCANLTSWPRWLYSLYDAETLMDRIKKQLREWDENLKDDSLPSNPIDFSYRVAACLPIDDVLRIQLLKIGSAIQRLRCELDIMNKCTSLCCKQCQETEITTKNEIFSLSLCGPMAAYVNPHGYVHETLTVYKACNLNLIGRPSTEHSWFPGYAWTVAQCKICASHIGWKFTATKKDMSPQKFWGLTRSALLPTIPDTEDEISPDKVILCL

The target of this assay is human Cereblon WT GST-tagged protein (Homo sapiens (Human), UniProt Q96SW2). As to the kind of experiment: CRBN-binding affinity, HTRF (CEREBLON BINDING kit). In outline:
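GST-tagged human WT Cereblon incubated with compound, then Thalidomide-Re tracer and anti-GST Eu antibody added. Displacement read by HTRF, reported as CRBN binding inhibition rate against blank control wells without protein.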
Usually pIC50 stands for the IC50 on a negative log10 scale, so that one unit is a factor of ten. A higher pIC50 goes with a small IC50. In the case of `O=C1CCC(N2Cc3ccc(CN4CCN(CC5=C(c6ccc(F)cc6)CCCC5)CC4)cc3C2=O)C(=O)N1` (stereo not shown) [GT-05465, 3-(6-((4-((4′-fluoro-3,4,5,6-tetrahydro-[1,1′-biphenyl]-2-yl)methyl)piperazin-1-yl)methyl)-1-oxoisoindolin-2-yl)piperidine-2,6-dione], the negative logarithm of the IC50 (pIC50) was 6.08.

`O=C1CCC(N2C(=O)c3ccc(CN4CCN(C(=O)C5=C(c6ccc(F)cc6)CCCC5)CC4)cc3C2=O)C(=O)N1` (stereo not shown) [GT-05468, 2-(2,6-dioxopiperidin-3-yl)-5-((4-(4′-fluoro-3,4,5,6-tetrahydro-[1,1′-biphenyl]-2-carbonyl)piperazin-1-yl)methyl)isoindoline-1,3-dione] had a pIC50 of 5.82.

`O=C1CCC(N2Cc3ccc(CN4CCN(C(=O)C5=C(c6ccc(F)cc6)CCCC5)CC4)cc3C2=O)C(=O)N1` (stereo not shown) [GT-05470, 3-(6-((4-(4′-fluoro-3,4,5,6-tetrahydro-[1,1′-biphenyl]-2-carbonyl)piperazin-1-yl)methyl)-1-oxoisoindolin-2-yl)piperidine-2,6-dione] gave a pIC50 of 6.01.

`O=C1CCC(N2Cc3c(CN4CCN(C(=O)C5=C(c6ccc(F)cc6)CCCC5)CC4)cccc3C2=O)C(=O)N1` (stereo not shown) [GT-05471, 3-(4-((4-(4′-fluoro-3,4,5,6-tetrahydro-[1,1′-biphenyl]-2-carbonyl)piperazin-1-yl)methyl)-1-oxoisoindolin-2-yl)piperidine-2,6-dione] showed a pIC50 of 5.97. This pIC50 and that of the compound before are within 0.2 log units of each other.

`O=C1CCC(N2Cc3cc(CN4CCN(C(=O)C5=C(c6ccc(F)cc6)CCCC5)CC4)cc(F)c3C2=O)C(=O)N1` (stereo not shown) [GT-05474, 3-(7-fluoro-5-((4-(4′-fluoro-3,4,5,6-tetrahydro-[1,1′-biphenyl]-2-carbonyl)piperazin-1-yl)methyl)-1-oxoisoindolin-2-yl)piperidine-2,6-dione] showed a negative-log IC50 (pIC50) of 5.93.

With `O=C1CCC(N2Cc3c(ccc(CN4C5CC4CN(C(=O)C4=C(c6ccc(F)cc6)CCCC4)C5)c3F)C2=O)C(=O)N1` (stereo not shown) [GT-05475, 3-(4-fluoro-5-((3-(4′-fluoro-3,4,5,6-tetrahydro-[1,1′-biphenyl]-2-carbonyl)-3,6-diazabicyclo[3.1.1]heptan-6-yl)methyl)-1-oxoisoindolin-2-yl)piperidine-2,6-dione], the pIC50 was 6.04.

Compound `O=C1CCC(N2Cc3cc(CN4C5CC4CN(C(=O)C4=C(c6ccc(F)cc6)CCCC4)C5)c(F)cc3C2=O)C(=O)N1` (stereo not shown) [GT-05476, 3-(6-fluoro-5-((3-(4′-fluoro-3,4,5,6-tetrahydro-[1,1′-biphenyl]-2-carbonyl)-3,6-diazabicyclo[3.1.1]heptan-6-yl)methyl)-1-oxoisoindolin-2-yl)piperidine-2,6-dione] had a pIC50 of 5.92. The pIC50 values of the last two compounds are within 0.2 log units of each other.

The compound `O=C1CCC(N2Cc3cc(CN4C5CC4CN(C(=O)C4=C(c6ccc(F)cc6)CCCC4)C5)cc(F)c3C2=O)C(=O)N1` (stereo not shown) [GT-05477, 3-(7-fluoro-5-((3-(4′-fluoro-3,4,5,6-tetrahydro-[1,1′-biphenyl]-2-carbonyl)-3,6-diazabicyclo[3.1.1]heptan-6-yl)methyl)-1-oxoisoindolin-2-yl)piperidine-2,6-dione] showed a pIC50 of 6.18.

Take `O=C1CCC(N2Cc3c(CN4C5CC4CN(C(=O)C4=C(c6ccc(F)cc6)CCCC4)C5)cccc3C2=O)C(=O)N1` (stereo not shown) [GT-05478, 3-(4-((3-(4′-fluoro-3,4,5,6-tetrahydro-[1,1′-biphenyl]-2-carbonyl)-3,6-diazabicyclo[3.1.1]heptan-6-yl)methyl)-1-oxoisoindolin-2-yl)piperidine-2,6-dione]: the pIC50 is 5.95.

`O=C1CCC(N2Cc3ccc(CN4C5CC4CN(C(=O)C4=C(c6ccc(F)cc6)CCCC4)C5)cc3C2=O)C(=O)N1` (stereo not shown) [GT-05479, 3-(6-((3-(4′-fluoro-3,4,5,6-tetrahydro-[1,1′-biphenyl]-2-carbonyl)-3,6-diazabicyclo[3.1.1]heptan-6-yl)methyl)-1-oxoisoindolin-2-yl)piperidine-2,6-dione]: the negative-log IC50 (pIC50) is 6.14.

`O=C1CCC(N2Cc3cccc(CN4C5CC4CN(C(=O)C4=C(c6ccc(F)cc6)CCCC4)C5)c3C2=O)C(=O)N1` (stereo not shown) [GT-05480, 3-(7-((3-(4′-fluoro-3,4,5,6-tetrahydro-[1,1′-biphenyl]-2-carbonyl)-3,6-diazabicyclo[3.1.1]heptan-6-yl)methyl)-1-oxoisoindolin-2-yl)piperidine-2,6-dione] showed a negative logarithm of the IC50 (pIC50) of 5.76.

Regarding `CC1(C)CCC(CN2CC(=Cc3ccc4c(c3)CN(C3CCC(=O)NC3=O)C4=O)C2)=C(c2ccc(F)cc2)C1` (stereo not shown) [GT-05483, 3-(5-((1-((4′-fluoro-5,5-dimethyl-3,4,5,6-tetrahydro-[1,1′-biphenyl]-2-yl)methyl)azetidin-3-ylidene)methyl)-1-oxoisoindolin-2-yl)piperidine-2,6-dione], the negative-log IC50 (pIC50) was 6.29. This pIC50 is 0.53 log units higher than that of the compound before.

The compound `O=C1CCC(N2Cc3cc(C(O)C4(O)CN(C(=O)c5ccccc5-c5ccc(Cl)cc5)C4)ccc3C2=O)C(=O)N1` (stereo not shown) [GT-05484, 3-(5-((1-(4′-chloro-[1,1′-biphenyl]-2-carbonyl)-3-hydroxyazetidin-3-yl)(hydroxy)methyl)-1-oxoisoindolin-2-yl)piperidine-2,6-dione] gave a pIC50 of 6.44.

`CC1(C)CCC(CN2CC3CCC2CN3Cc2ccc3c(c2)C(=O)N(C2CCC(=O)NC2=O)C3)=C(c2ccc(Cl)cc2)C1` (stereo not shown) [GT-05485, 3-(6-((5-((4′-chloro-5,5-dimethyl-3,4,5,6-tetrahydro-[1,1′-biphenyl]-2-yl)methyl)-2,5-diazabicyclo[2.2.2]octan-2-yl)methyl)-1-oxoisoindolin-2-yl)piperidine-2,6-dione] gave a pIC50 of 6.13.

`O=C1CCC(N2Cc3c(C(=O)N4CCN(Cc5ccccc5-c5ccc(Cl)cc5)CC4)cccc3C2=O)C(=O)N1` (stereo not shown) [GT-05486, 3-(4-(4-((4′-chloro-[1,1′-biphenyl]-2-yl)methyl)piperazine-1-carbonyl)-1-oxoisoindolin-2-yl)piperidine-2,6-dione] showed a negative-log IC50 (pIC50) of 5.81.

Compound `CC1(C)CCC(C(=O)N2CCC(Cc3ccc4c(c3)CN(C3CCC(=O)NC3=O)C4=O)CC2)=C(c2ccc(F)cc2)C1` (stereo not shown) [GT-05487, 3-(5-((1-(4′-fluoro-5,5-dimethyl-3,4,5,6-tetrahydro-[1,1′-biphenyl]-2-carbonyl)piperidin-4-yl)methyl)-1-oxoisoindolin-2-yl)piperidine-2,6-dione] gave a negative logarithm of the IC50 (pIC50) of 6.19.

`CC1(C)CCC(C(=O)N2CC(Cc3ccc4c(c3)CN(C3CCC(=O)NC3=O)C4=O)C2)=C(c2ccc(F)cc2)C1` (stereo not shown) [GT-05488, 3-(5-((1-(4′-fluoro-5,5-dimethyl-3,4,5,6-tetrahydro-[1,1′-biphenyl]-2-carbonyl)azetidin-3-yl)methyl)-1-oxoisoindolin-2-yl)piperidine-2,6-dione] gave a pIC50 of 6.22.

Regarding `CC1(C)CCC(C(=O)N2CC(=Cc3ccc4c(c3)CN(C3CCC(=O)NC3=O)C4=O)C2)=C(c2ccc(F)cc2)C1` (stereo not shown) [GT-05489, 3-(5-((1-(4′-fluoro-5,5-dimethyl-3,4,5,6-tetrahydro-[1,1′-biphenyl]-2-carbonyl)azetidin-3-ylidene)methyl)-1-oxoisoindolin-2-yl)piperidine-2,6-dione], the pIC50 was 6.21.

In turn, `CC1(C)CCC(C(=O)N2C3CCC2CN(c2ccc4c(c2)CN(C2CCC(=O)NC2=O)C4=O)C3)=C(c2ccc(F)cc2)C1` (stereo not shown) [GT-05491, 3-(5-(8-(4′-fluoro-5,5-dimethyl-3,4,5,6-tetrahydro-[1,1′-biphenyl]-2-carbonyl)-3,8-diazabicyclo[3.2.1]octan-3-yl)-1-oxoisoindolin-2-yl)piperidine-2,6-dione] had a negative logarithm of the IC50 (pIC50) of 6.01.
